ChEMBL document CHEMBL4840360, “Design, Synthesis, and Pharmacological Evaluation of Biaryl-Containing PD-1/PD-L1 Interaction Inhibitors Bearing a Unique Difluoromethyleneoxy Linkage” (J Med Chem, 2021)
Each block holds one molecule with its values, some of them ahead of it. The source made the active and inactive calls. The rule behind the calls is not given here.

How the values were obtained:
[1] = Antitumor activity against […] Hepa1-6 cells xenografted in C57BL/6 mouse syngeneic model assessed as tumor growth inhibition at 1 mg/kg, IM administered every other day and measured three times per week; type: functional; settings: Hepa1-6, im, read-out: TGI
Hepa1-6 [2] = test: Antitumor activity against […] Hepa1-6 cells xenografted in C57BL/6 […] mouse model assessed as tumor growth inhibition at 1 mg/kg, IM administered every other day and measured three times per week; type: functional, organism-based
Hepa1-6 [3] = test: Antitumor activity against […] Hepa1-6 cells xenografted in C57BL/6 mouse model assessed as increase in infiltration of GrzB+ CD8+ T-cells in tumor by flow cytometry analysis; type: functional, cell-based
Hepa1-6 [4] = test: Antitumor activity against […] Hepa1-6 cells xenografted in C57BL/6 mouse model assessed as increase in infiltration of IFNgamma+ CD8+ T-cells in tumor by flow cytometry analysis; type: functional, cell-based
[5] = Microsomal stability in mouse assessed as clearance; type: ADME; settings: microsomes
[6] = molecular target: T1, Programmed cell death protein 1/Programmed cell death 1 ligand 1 (Mus musculus) (UniProt Q9EP73+Q02242); test: Inhibition of PD1/PDL1 protein-protein interaction in mouse CD8-positive T cells cocultured with Hepa1-6 cells assessed as increase in ratio of IFNgamma+ CD8+ T cells at 0.75 to 3 uM incubated for 48 hrs in presence of alphaCD3/alphaCD28 and IL-2 stimulation by flow cytometry analysis; type: cell-based; settings: dose 0.75-3 µM
[7] = molecular target: T1, Programmed cell death protein 1/Programmed cell death 1 ligand 1 (Mus musculus); test: Inhibition of PD1/PDL1 protein-protein interaction in mouse CD8-positive T cells cocultured with Hepa1-6 cells assessed as increase in CD107a expression in CD8+ T cells incubated for 5 hrs in presence of alphaCD3/alphaCD28 and IL-2 stimulation by flow cytometry analysis; type: cell-based; settings: dose 0.75-3 µM
[8] = Observed clearance in rat at 1 mg/kg, iv; type: ADME, organism-based; settings: in vivo
[9] = Observed volume of distribution at steady state in rat at 1 mg/kg, iv; type: ADME, organism-based; settings: in vivo, read-out: Vdss
[10] = Half life in rat at 1 mg/kg, iv; type: ADME, organism-based; settings: in vivo
Hepa1-6 [11] = test: Antitumor activity against […] Hepa1-6 cells xenografted in C57BL/6 mouse model assessed as increase in infiltration of IFNgamma+ GrzB+ CD8+ T-cells in tumor by flow cytometry analysis; type: functional, cell-based
[12] = molecular target: T1, Programmed cell death protein 1/Programmed cell death 1 ligand 1 (Mus musculus); test: Inhibition of PD1/PDL1 protein-protein interaction in mouse CD8-positive T cells cocultured with Hepa1-6 cells assessed as increase in IFNgamma secretion incubated for 48 hrs in presence of alphaCD3/alphaCD28 and IL-2 stimulation by ELISA; type: cell-based; settings: dose 0.75-3 µM
[13] = molecular target: T1, Programmed cell death protein 1/Programmed cell death 1 ligand 1 (Mus musculus); test: Inhibition of PD1/PDL1 protein-protein interaction in mouse CD8-positive T cells cocultured with Hepa1-6 cells assessed as increase in ratio of GrzB+ CD8+ T cells at 0.75 to 3 uM incubated for 48 hrs in presence of alphaCD3/alphaCD28 and IL-2 stimulation by flow cytometry analysis; type: cell-based; settings: dose 0.75-3 µM
[14] = molecular target: T1, Programmed cell death protein 1/Programmed cell death 1 ligand 1 (Mus musculus); test: Inhibition of PD1/PDL1 protein-protein interaction in mouse CD8-positive T cells cocultured with Hepa1-6 cells assessed as increase in ratio of IFNgamma+ GrzB+ CD8+ T cells at 0.75 to 3 uM incubated for 48 hrs in presence of alphaCD3/alphaCD28 and IL-2 stimulation by flow cytometry analysis; type: cell-based; settings: dose 0.75-3 µM
[15] = molecular target: T2, Programmed cell death protein 1/Programmed cell death 1 ligand 1 (Homo sapiens, UniProt Q15116+Q9NZQ7); test: Inhibition of PD-1/PD-L1 interaction (unknown origin) by HTRF assay; type: protein-complex assay
T2 sequence (Q15116 whole entry): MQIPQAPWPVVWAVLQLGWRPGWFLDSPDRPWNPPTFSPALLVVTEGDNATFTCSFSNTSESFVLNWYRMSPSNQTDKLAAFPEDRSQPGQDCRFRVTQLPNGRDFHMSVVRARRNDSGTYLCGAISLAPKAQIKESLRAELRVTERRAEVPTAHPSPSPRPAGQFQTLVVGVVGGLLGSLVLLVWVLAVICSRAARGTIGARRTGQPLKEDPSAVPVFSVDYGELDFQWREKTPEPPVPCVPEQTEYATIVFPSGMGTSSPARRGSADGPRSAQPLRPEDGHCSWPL
T2 sequence (Q9NZQ7 whole entry): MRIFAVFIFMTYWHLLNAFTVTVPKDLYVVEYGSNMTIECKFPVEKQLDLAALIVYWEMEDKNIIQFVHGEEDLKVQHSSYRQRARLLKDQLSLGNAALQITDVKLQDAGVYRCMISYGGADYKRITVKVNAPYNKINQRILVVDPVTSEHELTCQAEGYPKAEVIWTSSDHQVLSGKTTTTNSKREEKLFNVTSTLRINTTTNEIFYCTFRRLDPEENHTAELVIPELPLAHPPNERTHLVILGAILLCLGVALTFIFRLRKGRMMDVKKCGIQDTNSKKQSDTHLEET

[16] = AUClast in rat at 1 mg/kg, iv; type: ADME, organism-based; parameters: time 0 - last, route intravenous, dose 1 mg/kg; settings: in vivo
[17] = molecular target: T2, Programmed cell death protein 1/Programmed cell death 1 ligand 1; test: Inhibition of PD-1/PD-L1 interaction in human PBMCs cocultured with H1299 cells assessed as increase in INFgamma expression at 0.1 uM incubated for 72 hrs in presence of alphaCD3/alphaCD28 by ELISA; type: cell-based; settings: PBMC
[18] = molecular target: T2, Programmed cell death protein 1/Programmed cell death 1 ligand 1; test: Inhibition of PD-1/PD-L1 interaction in human Jurkat T cells expressing PD-1 cocultured with CHO cells expressing PD-Ll/TCR assessed as activation of Jurkat cells by luciferase reporter gene assay; type: cell-based
[19] = Microsomal stability in mouse assessed as half life; type: ADME; settings: microsomes
[20] = AUClast in rat at 3 mg/kg, po; type: ADME, organism-based; parameters: time 0 - last, route oral, dose 3 mg/kg; settings: in vivo
[21] = Tmax in rat at 3 mg/kg, po; type: ADME, organism-based; settings: in vivo
[22] = Cmax in rat at 3 mg/kg, po; type: ADME, organism-based; parameters: route oral, dose 3 mg/kg; settings: in vivo

microsomal CLint [5]: 46.1 µL/min/mg
clearance [8]: 40 mL/min/kg
Vd [9]: 3.92 L/kg
half-life [10]: 4.84 h
AUC(0-t) [16]: 464 ng·h/mL
half-life [19]: 1.25 h
Structure (SMILES): Cc1c(-c2ccc3c(c2)OCCO3)cccc1C(F)(F)Oc1cc(OCc2ccnc(C#N)c2)c(CN[C@@H]2C(O)O[C@H](CO)[C@@H](O)[C@@H]2O)cc1Cl (some centres not stated)
inhibition in vivo at 1 mg/kg [1]: 53.1%
Activity (Hepa1-6 [2]): Active
Activity (Hepa1-6 [3]): Active
Activity (Hepa1-6 [4]): Active
inhibition [6]: Active
inhibition [7]: Dose-Dependent Effect
Activity (Hepa1-6 [11]): Active
inhibition [12]: Dose-Dependent Effect
inhibition [13]: Active
inhibition [14]: Active
IC50 [15]: 10.2 nM
inhibition [17]: Active
IC50 [18]: 3160 nM

Structure (SMILES): Cc1cc(OC(F)(F)c2cccc(-c3ccc4c(c3)OCCO4)c2C)cc(OCc2cccc(C#N)c2)c1CN[C@H](CO)C(=O)O
IC50 [15]: 31.9 nM

Structure (SMILES): Cc1cc(OC(F)(F)c2cccc(-c3ccc4c(c3)OCCO4)c2C)cc(OCc2cccc(C#N)c2)c1CN[C@@H](C(=O)O)[C@H](C)O
IC50 [15]: 54.7 nM

Structure (SMILES): CC(=O)OCCOC(=O)[C@@H]1CCCCN1Cc1cc(Cl)c(OC(F)(F)c2cccc(-c3ccc4c(c3)OCCO4)c2C)cc1OCc1ccnc(C#N)c1
IC50 [15]: > 1000 nM

Structure (SMILES): Cc1c(-c2ccc3c(c2)OCCO3)cccc1C(F)(F)Oc1cc(OCc2ccnc(C#N)c2)c(CN2CCCC[C@H]2C(=O)OCC(F)(F)F)cc1Cl
IC50 [15]: > 1000 nM

Structure (SMILES): Cc1c(-c2ccc3c(c2)OCCO3)cccc1C(F)(F)Oc1cc(OCc2cccc(C#N)c2)c(CNC(C)(CO)CO)cc1Cl
IC50 [15]: 5.93 nM

Structure (SMILES): Cc1c(-c2ccc3c(c2)OCCO3)cccc1C(F)(F)Oc1cc(OCc2cccc3nonc23)c(CNC(CO)(CO)CO)cc1Cl
IC50 [15]: 7.05 nM

Structure (SMILES): Cc1c(-c2ccc3c(c2)OCCO3)cccc1C(F)(F)Oc1cc(OCc2ccnc(C#N)c2)c(CNC(CO)(CO)CO)cc1Cl
IC50 [15]: 6.32 nM

Structure (SMILES): CC(=O)OCOC(=O)[C@@H]1CCCCN1Cc1cc(Cl)c(OC(F)(F)c2cccc(-c3ccc4c(c3)OCCO4)c2C)cc1OCc1ccnc(C#N)c1
IC50 [15]: 28.8 nM

microsomal CLint [5]: 52.5 µL/min/mg
clearance [8]: 124 mL/min/kg
Vd [9]: 1.33 L/kg
half-life [10]: 0.47 h
AUC(0-t) [16]: 142 ng·h/mL
half-life [19]: 1.1 h
Structure (SMILES): Cc1cc(OCc2cccc(-c3ccc4c(c3)OCCO4)c2C)cc(OCc2cccc(C#N)c2)c1CN[C@H](CO)C(=O)O
IC50 [15]: 48.2 nM

clearance [8]: 131 mL/min/kg
Vd [9]: 18 L/kg
half-life [10]: 3.14 h
AUC(0-t) [16]: 141 ng·h/mL
Structure (SMILES): Cc1c(-c2ccc3c(c2)OCCO3)cccc1C(F)(F)Oc1cc(OCc2ccnc(C#N)c2)c(CN[C@@H](CO)[C@@H](O)[C@@H](O)[C@H](O)CO)cc1Cl
IC50 [15]: 7.1 nM
inhibition [17]: Active

Structure (SMILES): Cc1c(-c2ccc3c(c2)OCCO3)cccc1C(F)(F)Oc1cc(OCc2ccnc(C#N)c2)c(CN2CCCC[C@H]2C(=O)N[C@@H]2C(O)O[C@H](CO)[C@@H](O)[C@@H]2O)cc1Cl (some centres not stated)
IC50 [15]: 28.8 nM

Structure (SMILES): Cc1cc(OC(F)(F)c2cccc(-c3ccc4c(c3)OCCO4)c2C)cc(OCc2cccc(C#N)c2)c1CNC(C)(CO)CO
IC50 [15]: 16.3 nM

AUC(0-t) [20]: 0.701 ng·h/mL
clearance [8]: 143 mL/min/kg
Vd [9]: 5.31 L/kg
half-life [10]: 0.71 h
Tmax [21]: 2.83 h
Cmax [22]: 0.698 ng/mL
AUC(0-t) [16]: 117 ng·h/mL
Structure (SMILES): Cc1c(-c2ccc3c(c2)OCCO3)cccc1C(F)(F)Oc1cc(OCc2ccnc(C#N)c2)c(CN2CCCC[C@H]2C(=O)O)cc1Cl
IC50 [15]: 2.99 nM
inhibition [17]: Active

Structure (SMILES): Cc1cc(OC(F)(F)c2cccc(-c3ccc4c(c3)OCCO4)c2C)cc(OCc2cccc(C#N)c2)c1CNC(CO)(CO)CO
IC50 [15]: 30.5 nM

AUC(0-t) [20]: 2.83 ng·h/mL
clearance [8]: 89 mL/min/kg
Vd [9]: 4.18 L/kg
half-life [10]: 1.32 h
Tmax [21]: 0.33 h
Cmax [22]: 4.82 ng/mL
AUC(0-t) [16]: 188 ng·h/mL
Structure (SMILES): Cc1c(-c2ccc3c(c2)OCCO3)cccc1C(F)(F)Oc1cc(OCc2cncc(C#N)c2)c(CNC(CO)(CO)CO)cc1Cl
IC50 [15]: 5.68 nM
inhibition [17]: Active

Structure (SMILES): CON(C)C(=O)[C@@H]1CCCCN1Cc1cc(Cl)c(OC(F)(F)c2cccc(-c3ccc4c(c3)OCCO4)c2C)cc1OCc1ccnc(C#N)c1
IC50 [15]: > 1000 nM
